According to PubChem BioAssay (NCI):
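Briefly, cells in 96-well plates were exposed to five compound concentrations for 48 h, and endpoints were estimated by linear interpolation. At the TGI there is no net growth.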

Columns and labels:
Test in all cases: growth of human tumour cells (NCI), 48 h
[1] = tested on: RXF 393 renal
[2] = tested on: NCI-H23 lung
[3] = tested on: CCRF-CEM leukemia
[4] = tested on: RPMI-8226 leukemia
[5] = tested on: T-47D breast
[6] = tested on: TK-10 renal
[7] = tested on: SF-295 CNS
[8] = tested on: NCI-H226 lung
[9] = tested on: IGROV1 ovarian
[10] = tested on: SK-MEL-5 melanoma
[11] = tested on: SN12C renal
[12] = tested on: COLO 205 colon
[13] = tested on: HCT-116 colon
[14] = tested on: SNB-19 CNS
[15] = tested on: UACC-257 melanoma
[16] = tested on: M14 melanoma
[17] = tested on: SF-268 CNS
[18] = tested on: U251 CNS
[19] = tested on: MALME-3M melanoma
[20] = tested on: OVCAR-8 ovarian
[21] = tested on: 786-0 renal
[22] = tested on: SF-539 CNS
[23] = tested on: A498 renal
[24] = tested on: K-562 leukemia
[25] = tested on: KM12 colon
[26] = tested on: SNB-75 CNS
[27] = tested on: SK-MEL-28 melanoma
[28] = tested on: MCF7 breast
[29] = tested on: UACC-62 melanoma
[30] = tested on: BT-549 breast
[31] = tested on: MOLT-4 leukemia
[32] = tested on: NCI/ADR-RES ovarian
[33] = tested on: NCI-H460 lung
[34] = tested on: A549 NSCLC
[35] = tested on: SK-MEL-2 melanoma
[36] = tested on: HCT-15 colon
[37] = tested on: HOP-62 NSCLC
[38] = tested on: ACHN renal
[39] = tested on: LOX IMVI melanoma
[40] = tested on: OVCAR-3 ovarian
[41] = tested on: EKVX NSCLC
[42] = tested on: SR leukemia
[43] = tested on: CAKI-1 renal
[44] = tested on: UO-31 renal
[45] = tested on: MDA-N
[46] = tested on: MDA-MB-231 breast
[47] = tested on: NCI-H522 lung
[48] = tested on: MDA-MB-435
[49] = tested on: DU-145 prostate
[50] = tested on: OVCAR-5 ovarian
[51] = tested on: OVCAR-4 ovarian
[52] = tested on: HCC-2998 colon
[53] = tested on: HOP-92 NSCLC
[54] = tested on: SK-OV-3 ovarian
[55] = tested on: HT29 colon
[56] = tested on: PC-3 prostate
[57] = tested on: HS 578T breast
[58] = tested on: SW-620 colon
[59] = tested on: HL-60(TB) leukemia

O=c1[nH]c2ccc(C(F)(F)F)cc2nc1C(F)(F)F
TGI [1]: 36.3 µM
TGI [2]: 46.9 µM
TGI [3]: 42.7 µM
TGI [4]: > 100 µM
TGI [5]: 45.9 µM
TGI [6]: > 100 µM
TGI [7]: > 100 µM
TGI [8]: 89 µM
TGI [9]: 95.3 µM
TGI [10]: 35.5 µM
TGI [11]: 87.6 µM
TGI [12]: 39.8 µM
TGI [13]: 60.7 µM
TGI [14]: > 100 µM
TGI [15]: 64.4 µM
TGI [16]: > 100 µM
TGI [17]: > 100 µM
TGI [18]: > 100 µM
TGI [19]: 74.2 µM
TGI [20]: 77 µM
TGI [21]: > 100 µM
TGI [22]: 64.2 µM
TGI [23]: 87.5 µM
TGI [24]: > 100 µM
TGI [25]: 57.7 µM
TGI [26]: 48 µM
TGI [27]: > 100 µM
TGI [28]: 80.3 µM
TGI [29]: > 100 µM
TGI [30]: 89.8 µM
TGI [31]: 63.8 µM
TGI [32]: 70.7 µM
TGI [33]: > 100 µM
TGI [34]: > 100 µM
TGI [35]: 43.1 µM
TGI [36]: > 100 µM
TGI [37]: 55.5 µM
TGI [38]: > 100 µM
TGI [39]: 60.8 µM
TGI [40]: 41.8 µM
TGI [41]: > 100 µM
TGI [42]: > 100 µM
TGI [43]: 82.1 µM
TGI [44]: 75.6 µM
TGI [45]: > 100 µM
TGI [46]: 96.5 µM
TGI [47]: 47.6 µM
TGI [48]: 78.8 µM
TGI [49]: > 100 µM
TGI [50]: > 100 µM
TGI [51]: > 100 µM
TGI [52]: > 100 µM
TGI [53]: 30.2 µM
TGI [54]: 85.7 µM
TGI [55]: > 100 µM
TGI [56]: 62.7 µM

CCOP(=O)(Cc1nc(C#N)c(N)o1)OCC
TGI [1]: > 100 µM
TGI [3]: > 100 µM
TGI [4]: > 100 µM
TGI [6]: > 100 µM
TGI [7]: > 100 µM
TGI [8]: > 100 µM
TGI [9]: > 100 µM
TGI [10]: > 100 µM
TGI [11]: > 100 µM
TGI [12]: > 100 µM
TGI [13]: > 100 µM
TGI [14]: > 100 µM
TGI [15]: > 100 µM
TGI [17]: > 100 µM
TGI [18]: > 100 µM
TGI [19]: > 100 µM
TGI [21]: > 100 µM
TGI [23]: > 100 µM
TGI [24]: > 100 µM
TGI [25]: > 100 µM
TGI [27]: > 100 µM
TGI [28]: > 100 µM
TGI [29]: > 100 µM
TGI [31]: > 100 µM
TGI [33]: > 100 µM
TGI [57]: > 100 µM
TGI [35]: > 100 µM
TGI [36]: > 100 µM
TGI [37]: > 100 µM
TGI [38]: > 100 µM
TGI [39]: > 100 µM
TGI [40]: > 100 µM
TGI [41]: > 100 µM
TGI [42]: > 100 µM
TGI [58]: > 100 µM
TGI [59]: > 100 µM
TGI [43]: > 100 µM
TGI [45]: > 100 µM
TGI [46]: > 100 µM
TGI [47]: > 100 µM
TGI [48]: > 100 µM
TGI [49]: > 100 µM
TGI [50]: > 100 µM
TGI [51]: > 100 µM
TGI [52]: > 100 µM
TGI [53]: > 100 µM
TGI [54]: > 100 µM
TGI [55]: > 100 µM
TGI [56]: > 100 µM
